According to US9475819B2, “Substituted 7-azabicycles and their use as orexin receptor modulators” (Janssen Pharmaceutica NV, priority 2013, dated 2016):

What was measured:
[1] = target: human orexin 2 receptor (Homo sapiens (Human), UniProt O43614); test: Human orexin 2 receptor radioligand binding ([3H]-EMPA competition, HEK293 cells); settings: [3H]-EMPA competition binding, read-out: hOX2 Ki
[2] = target: human orexin 1 receptor (Homo sapiens (Human), UniProt O43613); test: Human orexin 1 receptor radioligand binding ([3H]-SB674042 competition, CHO cells); settings: [3H]-SB674042 competition binding, read-out: hOX1 Ki
human orexin 1 receptor, sequence (O43613 whole entry): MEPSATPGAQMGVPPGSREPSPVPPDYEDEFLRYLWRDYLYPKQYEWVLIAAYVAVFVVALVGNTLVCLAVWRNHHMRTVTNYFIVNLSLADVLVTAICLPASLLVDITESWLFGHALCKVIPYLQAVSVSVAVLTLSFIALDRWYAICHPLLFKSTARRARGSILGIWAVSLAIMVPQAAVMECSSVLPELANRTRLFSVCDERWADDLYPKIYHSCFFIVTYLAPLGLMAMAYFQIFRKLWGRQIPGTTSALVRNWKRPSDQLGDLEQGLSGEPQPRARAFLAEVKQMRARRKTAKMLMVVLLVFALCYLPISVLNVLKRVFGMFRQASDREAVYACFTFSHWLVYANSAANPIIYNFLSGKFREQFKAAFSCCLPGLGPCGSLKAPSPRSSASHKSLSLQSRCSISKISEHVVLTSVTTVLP

human orexin 2 receptor, sequence (O43614 whole entry): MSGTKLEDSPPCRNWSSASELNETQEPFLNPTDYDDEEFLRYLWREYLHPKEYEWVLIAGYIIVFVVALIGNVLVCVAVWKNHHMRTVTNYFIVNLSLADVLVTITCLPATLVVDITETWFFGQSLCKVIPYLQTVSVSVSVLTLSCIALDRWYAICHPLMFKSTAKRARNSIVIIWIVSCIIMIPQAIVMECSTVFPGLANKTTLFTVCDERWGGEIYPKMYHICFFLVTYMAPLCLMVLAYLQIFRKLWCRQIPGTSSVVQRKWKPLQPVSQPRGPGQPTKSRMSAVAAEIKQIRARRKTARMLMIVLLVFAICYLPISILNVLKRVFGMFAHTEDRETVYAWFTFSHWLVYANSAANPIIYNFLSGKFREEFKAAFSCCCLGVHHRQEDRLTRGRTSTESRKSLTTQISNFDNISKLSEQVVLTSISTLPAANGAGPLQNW

| SMILES | Ki [1] | Ki [2] |
| --- | --- | --- |
| Cc1ccc(-n2nccn2)c(C(=O)N2[C@H]3CC[C@@H]2[C@@H](COc2ccc(F)cn2)C3)c1 (single isomer, unassigned) [Example 10B] | 5150 nM | – |
| Cc1ccc(-n2nccn2)c(C(=O)N2C3CCC2C(Nc2ccc(C(F)(F)F)cn2)C3)n1 (racemic) [Example 187, (±)-(6-methyl-3-(2H-1,2,3-triazol-2-yl)pyridin-2-yl)(2-((5-(trifluoromethyl)pyridin-2-yl)amino)-7-azabicyclo[2.2.1]heptan-7-yl)methanone] | 620 nM | 48 nM |
